{"source": "patent US11851697B2", "about": "“Ex vivo protease activity detection for disease detection/diagnostic, staging, monitoring and treatment” (Glympse Bio, Inc., priority 2020, dated 2023)", "key": {"[1]": {"details": "cited from earlier work"}, "[2]": {"tested_on": "COVID-related proteases", "experiment": "Ex vivo probe cleavage in COVID vs healthy K2EDTA and Lithium Heparin plasma", "type": "biochemical"}, "[3]": {"tested_on": "proteases in NASH and healthy plasma cleaving Probe #102", "experiment": "Inhibitor profiling of Probe #102 cleavage in NASH and healthy plasma", "type": "biochemical, mice", "procedure": "For this experiment, all plasma samples were prepared individually and diluted 1/10e in PBS with inhibitor added directly to the samples. Inhibitor was prepared at 15× concentration to final. Substrates were diluted in DI water at 18 uM, such that the final concentration on the plate would be 6 uM. All samples were prepared such that their last dilution on the plate would not affect the desired final concentration. 10 ul of each individual sample was pipetted into their corresponding wells, and the plate was then spun down in the centrifuge at 1500 RPM for 30 seconds to coat the bottom of each well with the sample. 5 ul of the 18 uM substrate solution was pipetted into each well being used on a 384 well plate, and then the plate was spun down in the centrifuge at 1500 rpm for 30 seconds. The plate was placed immediately in the plate reader at 37° C. for a 30-minute-long fluorescence kinetic read at 485/535 extended gain.\nTo assess the proteolytic cleavage pattern of Probe #102, samples were tested using a pool of broad inhibitors for serine, cysteine, threonine, MMP and aspartic protease family members (broad inhibitor) to assess general protease activity, AEBSF for serine proteases, E64 for cysteine proteases, CTSi for broad cathepsin inhibition of cathepsins L, S, K and B, or specific inhibitors for cathepsin K (L00625), for cathepsin L (SID) or cathepsin B (CA074)."}, "[4]": {"tested_on": "caspase activity in hepatitis", "experiment": "Ex vivo probe cleavage in plasma of Jo2 fulminant hepatitis mice", "type": "biochemical", "details": "mouse plasma 3 hours after Jo2 injection vs healthy", "procedure": "Fulminant hepatitis is induced after injection intraperitoneal of monoclonal antibody anti-CD95 (Jo2, BD biosciences, 4 ug/animal), and mouse plasma samples were collected 3 hours after Jo2 injection."}, "[5]": {"tested_on": "cathepsin and/or MMP protease activities", "experiment": "Ex vivo probe cleavage in plasma of healthy, NASH regression and NASH progression mice", "type": "biochemical", "details": "K2EDTA plasma collected at 20 weeks", "excerpt": "Plasma samples were collected from all animals at 20 weeks.\nThe probes showing the most differentiation in NASH were linked to cathepsin and/or MMP protease activities."}, "[6]": {"details": "both K2EDTA and Lithium Heparin plasma sets"}}, "note": "Square brackets hold non-standard residues; d marks the D form. Primed or numbered codes have the meaning given here. Ends that are not written are not given here. CPQ2(3) = quencher on Lys side chain; FAM = fluorescent reporter; PEG2″ = PEG2 spacer; CPQ2 = quencher"}
{"molecule": "O=c1[nH]c(-c2ccccc2O)nc2ccccc12", "note": "[HPQ, 2-(2″-hydroxyphenyl)-4(3H)-quinazolinone]", "values": [{"measurement": "solubility in water", "setting": "[1]", "value": "strictly insoluble in water"}]}
{"molecule": "Probe #409: the SARS CoV2 coronavirus substrate (SARS-COV2 3C protease) (GTSAVLQSGFRKGK(CPQ2); not fully specified (N-terminus, C-terminus); also: 5-FAM (place not given here), PEG2-kk-GC (place not given here))", "values": [{"measurement": "differential cleavage between COVID and healthy samples", "setting": "[2]; K2 EDTA samples", "value": "modest contrast"}]}
{"molecule": "CC(C)C[C@H](NC(=O)[C@H]1O[C@@H]1C(=O)O)C(=O)NCCCCN=C(N)N", "note": "[Probe E64, E64]", "values": [{"measurement": "effect on NASH signal", "setting": "[3]; NASH plasma, Probe #102, less decrease in signal for healthy", "value": "decreased NASH signal significantly"}]}
{"molecule": "NCCc1ccc(S(=O)(=O)F)cc1", "note": "[AEBSF]", "values": [{"measurement": "decrease of NASH signal", "setting": "[3]; NASH plasma, Probe #102", "value": 65, "unit": "%"}, {"measurement": "decrease of healthy signal", "setting": "[3]; healthy plasma, Probe #102", "value": 60, "unit": "%"}]}
{"molecule": "Probe #12: Caspase centric probe (GDEVDGK; not fully specified; 5-FAM, CPQ2 quencher, PEG2; MOD_RES (7)..(7) Lys modified with a CPQ2 quencher)", "values": [{"measurement": "contrast in Jo2 hepatitis model", "setting": "[4]", "value": "show contrast that is specific and sensitive to the Jo2 model"}]}
{"molecule": "Probe #428: probe of Table 1 ({FAM}-GDRRKKLTQGK(CPQ2(3))[PEG2″][dK][dK]GC; not fully specified; printed as (FAM)-GDRRKKLTQG-K(CPQ2)-(PEG2)-DLys-DLys-GC)", "values": [{"measurement": "differentiation among healthy, regression and NASH samples", "setting": "[5]", "value": "can differentiate"}]}
{"molecule": "Probe #8: Caspase centric probe (GVDVADGK; not fully specified; 5-FAM, CPQ2 quencher, PEG2; MOD_RES (8)..(8) Lys modified with a CPQ2 quencher)", "values": [{"measurement": "contrast in Jo2 hepatitis model", "setting": "[4]", "value": "show contrast that is specific and sensitive to the Jo2 model"}]}
{"molecule": "CN1CCN(c2nc(-c3ccc(C(=O)NC4(C(=O)NCC#N)CCCCC4)cc3)cs2)CC1", "note": "[Probe L006235]", "values": [{"measurement": "effect on signal for NASH or healthy samples", "setting": "[3]; Probe #102", "value": "did not significantly decrease signal"}]}
{"molecule": "CCCNC(=O)[C@H]1O[C@@H]1C(=O)N[C@H](C(=O)N1CCC[C@H]1C(=O)O)[C@@H](C)CC", "note": "[CA074]", "values": [{"measurement": "effect on signal for NASH or healthy samples", "setting": "[3]; Probe #102", "value": "did not significantly decrease signal"}]}
{"molecule": "O=c1nc(-c2cc(C(=C(c3ccccc3)c3ccccc3)c3ccccc3)ccc2O)[nH]c2ccc(Cl)cc12", "note": "[HTPQ]", "values": [{"measurement": "solubility in water", "setting": "[1]", "value": "strictly insoluble in water"}]}
{"molecule": "Probe #492: probe of Table 1 ({FAM}-GQRANSIRVTWGK(CPQ2(3))[PEG2″][dK][dK]GC; not fully specified; printed as (FAM)-GQRANSIRVTWG-K(CPQ2)-(PEG2)-DLys-DLys-GC)", "values": [{"measurement": "differentiation among healthy, regression and NASH samples", "setting": "[5]", "value": "can differentiate"}]}
{"molecule": "Probe #520: probe of Table 1 (GKPISLISSGK; not fully specified; 5FAM, CPQ2 quencher, PEG2; MOD_RES (11)..(11) Lys modified with a CPQ2 quencher)", "values": [{"measurement": "differentiation among healthy, regression and NASH samples", "setting": "[5]", "value": "can differentiate"}]}
{"molecule": "Probe #18: a Neutrophil elastase substrate (GAAPVGK(CPQ2); not fully specified (N-terminus, C-terminus); also: 5-FAM (place not given here), PEG2-kk-GC (place not given here))", "values": [{"measurement": "differential cleavage between COVID and healthy samples", "setting": "[2]; [6]", "value": "demonstrated contrast in both sets"}]}
{"molecule": "Probe #84: a Furin substrate (GRVKRGLAGK(CPQ2); not fully specified (N-terminus, C-terminus); also: 5-FAM (place not given here), PEG2-kk-GC (place not given here))", "values": [{"measurement": "differential cleavage between COVID and healthy samples", "setting": "[2]; [6]", "value": "demonstrated contrast in both sets"}]}
{"molecule": "Probe #102: a CTSL sensing probe; sequence in Table 1 ({FAM}-GKPILFFRLKGK(CPQ2(3))[PEG2″][dK][dK]GC; not fully specified; printed as (FAM)-GKPILFFRLKG-K(CPQ2)-PEG2-kk-GC)", "values": [{"measurement": "differentiation among healthy, regression and NASH samples", "setting": "[5]", "value": "can differentiate"}, {"measurement": "protease to which the probe responds", "setting": "[3]; individual cathepsin inhibitors, FIG. 30D-F", "value": "specifically responds to the activity of cathepsin L (CTSL)"}]}
{"molecule": "Probe #96: probe of Table 1 ({FAM}-GRPLALWESQGK(CPQ2)[PEG2″][dK]GC; not fully specified; printed as (FAM)-GRPLALWESQG-K(CPQ2)-PEG2-k-GC; also: FAM, position not given here)", "values": [{"measurement": "differentiation among healthy, regression and NASH samples", "setting": "[5]", "value": "can differentiate"}]}
{"molecule": "Probe #462: a MMP8 substrate (GKKAKRNALGK(CPQ2); not fully specified (N-terminus, C-terminus); also: FAM (place not given here), PEG2, DLys-DLys-GC (place not given here))", "values": [{"measurement": "differential cleavage between COVID and healthy samples", "setting": "[2]; [6]", "value": "demonstrated contrast in both sets"}]}
